Laboratory results: the supplement of paper PMC11208160

Experiment: recombinant UMI read abundance after kanamycin selection (control-corrected) (log10(CPM+1)); higher = more efficient recombination; extreme values may be limits of the assay; sequences stand for … in AGTGCAGAGAAAATCGGCCAGTTTTCTCTGCCTGCAGTCCGCATGCCGTGGGACCCCTTGGGTTCTAACCTGTTGCCTAGATTTATGCAGCGGACTGCCTTTCTCCCAAAGTGATAAACCGG…AGGTTGGTTTCACT; site = the 11-nt donor
Method in brief: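 After plating on IPTG (0.07 mM) plus kanamycin, or unselected, in two replicates, recombinant UMIs were PCR-amplified across the donor–target junction and sequenced. The cells were Escherichia coli co-electroporated with a UMI-tagged donor and donor-binding-loop pair library and a target plasmid with a fixed target and T7-inducible IS621 bridge recombinase. Values are log10(CPM+1), with CPM averaged over replicates and scaled by control-derived factors.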
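Also: IS621 bridge recombinase in Escherichia coli cells against a fixed T5 target plasmid.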

Sequence	recombinant UMI read abundance (log10)
GATTGGGCATGGACCGGTTTTCCCGGTAATCCGTATTTGAC (site GATTGGACTGT)	0.803
GATTGGGCATGGACCGGTTTTCCCGGTAATCCGTATTTGAC (site GATTGGCCTGT)	0
GATTGGGCATGGACCGGTTTTCCCGGTAATCCGTATTTGAC (site GATTGGGCTGT)	1.51
GATTGGGCATGGACCGGTTTTCCCGGTAATCCGTATTTGAC (site GATTGGTCTGT)	0
GATTGGTCATGGACCGGTTTTCCCGGTAATCCGTATTTGAC (site GATTGGACTGT)	0
GATTGGTCATGGACCGGTTTTCCCGGTAATCCGTATTTGAC (site GATTGGCCTGT)	0
GATTGGTCATGGACCGGTTTTCCCGGTAATCCGTATTTGAC (site GATTGGGCTGT)	0
GATTGGTCATGGACCGGTTTTCCCGGTAATCCGTATTTGAC (site GATTGGTCTGT)	0
GATTTGCCATGGACCGGTTTTCCCGGTAATCCGTATTTGGA (site GATTTGCCTTC)	0.0059
GATTTGGCATGGACCGGTTTTCCCGGTAATCCGTATTTGTG (site AATTTGGCTCA)	0.142
GATTTGGCATGGACCGGTTTTCCCGGTAATCCGTATTTGTG (site CATTTGGCTCA)	0.309
GATTTGGCATGGACCGGTTTTCCCGGTAATCCGTATTTGTG (site GATTTGGCTCA)	0.152
GATTTGGCATGGACCGGTTTTCCCGGTAATCCGTATTTGTG (site TATTTGGCTCA)	0.0288
GCAAAAGCATGGACCGGTTTTCCCGGTAATCCGTATTTGCC (site GCAAAAGCTGG)	0.282
GCAACCTCATGGACCGGTTTTCCCGGTAATCCGTATTTGCT (site GCAACCTCTAG)	1.91
GCAACTGCATGGACCGGTTTTCCCGGTAATCCGTATTTGGC (site GCAACTGCTGC)	1.95
GCAAGAACATGGACCGGTTTTCCCGGTAATCCGTATTTGAC (site GCAAGAACTGT)	2.57
GCAAGCGCATGGACCGGTTTTCCCGGTAATCCGTATTTGAT (site GCAAGCGCTAT)	2.29
GCACCATCATGGACCGGTTTTCCCGGTAATCCGTATTTGTA (site GCACCATCTTA)	2.47
GCACGACCATGGACCGGTTTTCCCGGTAATCCGTATTTGGG (site GCACGACCTCC)	0.0133
GCACGCGCATGGACCGGTTTTCCCGGTAATCCGTATTTGGT (site GCACGCGCTAC)	1.22
GCAGATTCATGGACCGGTTTTCCCGGTAATCCGTATTTGGG (site GCAGATTCTCC)	0.609
GCAGGTACATGGACCGGTTTTCCCGGTAATCCGTATTTGAC (site GAAGGTACTGT)	0.00935
GCAGGTACATGGACCGGTTTTCCCGGTAATCCGTATTTGAC (site GCAGGTACTGT)	1.91
GCAGGTACATGGACCGGTTTTCCCGGTAATCCGTATTTGAC (site GGAGGTACTGT)	0

Sequence	recombinant UMI read abundance (log10)
GCAGGTACATGGACCGGTTTTCCCGGTAATCCGTATTTGAC (site GTAGGTACTGT)	2.1
GCAGTAACATGGACCGGTTTTCCCGGTAATCCGTATTTGCA (site ACAGTATCTTG)	0.498
GCAGTAACATGGACCGGTTTTCCCGGTAATCCGTATTTGCA (site GCAGTAACTTG)	2.83
GCAGTCCCATGGACCGGTTTTCCCGGTAATCCGTATTTGCC (site GCAGTCCCTGG)	0
GCAGTCGCATGGACCGGTTTTCCCGGTAATCCGTATTTGCG (site GAAGTCGCTCG)	0.00976
GCAGTCGCATGGACCGGTTTTCCCGGTAATCCGTATTTGCG (site GCAGTCGCTCG)	0.764
GCAGTCGCATGGACCGGTTTTCCCGGTAATCCGTATTTGCG (site GGAGTCGCTCG)	0.00641
GCAGTCGCATGGACCGGTTTTCCCGGTAATCCGTATTTGCG (site GTAGTCGCTCG)	0.0117
GCAGTCTCATGGACCGGTTTTCCCGGTAATCCGTATTTGCA (site ACAGTATCTTG)	2.38
GCAGTCTCATGGACCGGTTTTCCCGGTAATCCGTATTTGCA (site GCAGTCTCTTG)	2.87
GCATATCCATGGACCGGTTTTCCCGGTAATCCGTATTTGAC (site GCATATCCTGT)	1.39
GCATCGGCATGGACCGGTTTTCCCGGTAATCCGTATTTGCC (site GCATCGGCTGG)	0.599
GCCAACTCATGGACCGGTTTTCCCGGTAATCCGTATTTGCG (site GCCAACTCTCG)	1.98
GCCAATTCATGGACCGGTTTTCCCGGTAATCCGTATTTGGG (site GCCAATTCTCC)	0.183
GCCACAGCATGGACCGGTTTTCCCGGTAATCCGTATTTGCT (site GCCACAGCTAG)	1.2
GCCACGCCATGGACCGGTTTTCCCGGTAATCCGTATTTGTA (site ACCACGCCTTA)	0.145
GCCACGCCATGGACCGGTTTTCCCGGTAATCCGTATTTGTA (site CCCACGCCTTA)	0.0175
GCCACGCCATGGACCGGTTTTCCCGGTAATCCGTATTTGTA (site GACACGCCTTA)	0.0176
GCCACGCCATGGACCGGTTTTCCCGGTAATCCGTATTTGTA (site GCAACGCCTTA)	0
GCCACGCCATGGACCGGTTTTCCCGGTAATCCGTATTTGTA (site GCCAAGCCTTA)	0.00579
GCCACGCCATGGACCGGTTTTCCCGGTAATCCGTATTTGTA (site GCCACACCTTA)	0.00375
GCCACGCCATGGACCGGTTTTCCCGGTAATCCGTATTTGTA (site GCCACCCCTTA)	0.0213
GCCACGCCATGGACCGGTTTTCCCGGTAATCCGTATTTGTA (site GCCACGACTTA)	0.00736
GCCACGCCATGGACCGGTTTTCCCGGTAATCCGTATTTGTA (site GCCACGCCTAA)	0.0376
GCCACGCCATGGACCGGTTTTCCCGGTAATCCGTATTTGTA (site GCCACGCCTCA)	0.00817

Sequence	recombinant UMI read abundance (log10)
GCCACGCCATGGACCGGTTTTCCCGGTAATCCGTATTTGTA (site GCCACGCCTGA)	0
GCCACGCCATGGACCGGTTTTCCCGGTAATCCGTATTTGTA (site GCCACGCCTTA)	0.289
GCCACGCCATGGACCGGTTTTCCCGGTAATCCGTATTTGTA (site GCCACGCCTTC)	0.00289
GCCACGCCATGGACCGGTTTTCCCGGTAATCCGTATTTGTA (site GCCACGCCTTG)	0.0133
GCCACGCCATGGACCGGTTTTCCCGGTAATCCGTATTTGTA (site GCCACGCCTTT)	0.0209
GCCACGCCATGGACCGGTTTTCCCGGTAATCCGTATTTGTA (site GCCACGGCTTA)	0.0146
GCCACGCCATGGACCGGTTTTCCCGGTAATCCGTATTTGTA (site GCCACGTCTTA)	1.45
GCCACGCCATGGACCGGTTTTCCCGGTAATCCGTATTTGTA (site GCCACTCCTTA)	0
GCCACGCCATGGACCGGTTTTCCCGGTAATCCGTATTTGTA (site GCCAGGCCTTA)	0.013
GCCACGCCATGGACCGGTTTTCCCGGTAATCCGTATTTGTA (site GCCATGCCTTA)	0.465
GCCACGCCATGGACCGGTTTTCCCGGTAATCCGTATTTGTA (site GCCCCGCCTTA)	0.00659
GCCACGCCATGGACCGGTTTTCCCGGTAATCCGTATTTGTA (site GCCGCGCCTTA)	0.00414
GCCACGCCATGGACCGGTTTTCCCGGTAATCCGTATTTGTA (site GCCTCGCCTTA)	0.183
GCCACGCCATGGACCGGTTTTCCCGGTAATCCGTATTTGTA (site GCGACGCCTTA)	0.00719
GCCACGCCATGGACCGGTTTTCCCGGTAATCCGTATTTGTA (site GCTACGCCTTA)	0.0265
GCCACGCCATGGACCGGTTTTCCCGGTAATCCGTATTTGTA (site GGCACGCCTTA)	0.204
GCCACGCCATGGACCGGTTTTCCCGGTAATCCGTATTTGTA (site GTCACGCCTTA)	0.00531
GCCACGCCATGGACCGGTTTTCCCGGTAATCCGTATTTGTA (site TCCACGCCTTA)	0.00575
GCCACTCCATGGACCGGTTTTCCCGGTAATCCGTATTTGGG (site GCCACTCCTCC)	0.0141
GCCACTCCATGGACCGGTTTTCCCGGTAATCCGTATTTGTA (site GCCACACCTTA)	0.0288
GCCACTCCATGGACCGGTTTTCCCGGTAATCCGTATTTGTA (site GCCACCCCTTA)	0.0122
GCCACTCCATGGACCGGTTTTCCCGGTAATCCGTATTTGTA (site GCCACGCCTTA)	0.00354
GCCACTCCATGGACCGGTTTTCCCGGTAATCCGTATTTGTA (site GCCACTCCTTA)	1.35
GCCAGGCCATGGACCGGTTTTCCCGGTAATCCGTATTTGAA (site GCCAGGCCTTT)	0.0165
GCCCAATCATGGACCGGTTTTCCCGGTAATCCGTATTTGGT (site GCCCAATCTAC)	1.53
